{"source": "patent US10758534B2", "about": "(Vertex Pharmaceuticals Incorporated, priority 2014, dated 2020)"}
{"biological_target": "T1, F508del (Homo sapiens, UniProt P13569, DEL508-508)", "T1 construct": "expressed in transfected cells", "T1 sequence (P13569 with tags, fused parts or gaps DEL508-508)": "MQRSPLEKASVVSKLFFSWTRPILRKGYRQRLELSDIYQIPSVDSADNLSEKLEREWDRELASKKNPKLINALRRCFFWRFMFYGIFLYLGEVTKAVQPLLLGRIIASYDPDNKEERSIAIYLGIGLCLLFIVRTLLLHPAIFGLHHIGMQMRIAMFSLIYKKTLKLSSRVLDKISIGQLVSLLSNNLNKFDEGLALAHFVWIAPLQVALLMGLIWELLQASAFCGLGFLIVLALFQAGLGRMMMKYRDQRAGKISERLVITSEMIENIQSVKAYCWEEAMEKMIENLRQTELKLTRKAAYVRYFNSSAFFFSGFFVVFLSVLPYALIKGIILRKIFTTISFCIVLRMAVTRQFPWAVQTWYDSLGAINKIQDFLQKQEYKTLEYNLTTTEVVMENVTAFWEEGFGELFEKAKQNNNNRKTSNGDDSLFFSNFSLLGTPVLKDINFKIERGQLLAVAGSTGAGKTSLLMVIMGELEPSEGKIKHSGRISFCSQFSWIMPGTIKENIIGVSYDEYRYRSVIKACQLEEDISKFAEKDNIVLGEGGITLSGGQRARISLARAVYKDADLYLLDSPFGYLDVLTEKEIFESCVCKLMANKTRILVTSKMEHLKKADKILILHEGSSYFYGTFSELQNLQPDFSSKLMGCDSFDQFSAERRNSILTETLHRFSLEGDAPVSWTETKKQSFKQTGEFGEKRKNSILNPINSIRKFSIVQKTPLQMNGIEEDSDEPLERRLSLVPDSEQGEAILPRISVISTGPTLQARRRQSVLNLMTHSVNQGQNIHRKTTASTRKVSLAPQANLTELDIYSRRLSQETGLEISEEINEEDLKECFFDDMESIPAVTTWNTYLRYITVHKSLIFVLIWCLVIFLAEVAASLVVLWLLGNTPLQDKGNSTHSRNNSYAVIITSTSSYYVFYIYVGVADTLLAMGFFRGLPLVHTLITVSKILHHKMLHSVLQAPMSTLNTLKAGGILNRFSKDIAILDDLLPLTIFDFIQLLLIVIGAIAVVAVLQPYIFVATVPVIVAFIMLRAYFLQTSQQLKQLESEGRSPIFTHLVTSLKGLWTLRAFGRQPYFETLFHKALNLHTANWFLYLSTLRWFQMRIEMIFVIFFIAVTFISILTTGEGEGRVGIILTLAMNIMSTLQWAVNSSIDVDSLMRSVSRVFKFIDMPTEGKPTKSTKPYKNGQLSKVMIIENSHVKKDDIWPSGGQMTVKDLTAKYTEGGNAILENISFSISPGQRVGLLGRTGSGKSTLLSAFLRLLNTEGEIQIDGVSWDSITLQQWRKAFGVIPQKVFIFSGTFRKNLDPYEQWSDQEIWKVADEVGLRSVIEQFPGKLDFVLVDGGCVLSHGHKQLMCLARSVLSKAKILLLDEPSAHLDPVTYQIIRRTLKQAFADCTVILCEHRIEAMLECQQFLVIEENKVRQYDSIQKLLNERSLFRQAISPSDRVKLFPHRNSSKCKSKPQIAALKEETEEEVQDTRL", "test": "Protocol 1: membrane potential optical assay (FLIPR III, voltage sensing dye), identification of potentiator compounds", "assay_type": "cell-based", "settings": "Table 3, compounds of Table 1", "outline": "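NIH 3T3 fibroblasts stably expressing F508del were cultured at 27° C for 24 hrs for temperature correction, then treated with compounds or DMSO and loaded with a voltage-sensing redistribution dye. Forskolin added with a Cl⁻ gradient activated the channel; membrane-potential fluorescence on FLIPR III reported increased gating.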"}
{"smiles": "C[C@@H]1CN(c2nc(-c3ccccc3F)ccc2C(=O)NS(=O)(=O)c2cccnc2N)C(C)(C)C1", "note": "[Compound 1790, N-[(2-amino-3-pyridyl)sulfonyl]-6-(2-fluorophenyl)-2-[(4S)-2,2,4-trimethylpyrrolidin-1-yl]pyridine-3-carboxamide]", "EC30": "+++ (“+++” means <3 uM)"}
{"smiles": "C[C@@H]1CN(c2nc(C3=COCC3)ccc2C(=O)NS(=O)(=O)c2cccc(N)n2)C(C)(C)C1", "note": "[Compound 1455, N-[(6-amino-2-pyridyl)sulfonyl]-6-(2,3-dihydrofuran-4-yl)-2-[(4S)-2,2,4-trimethylpyrrolidin-1-yl]pyridine-3-carboxamide]", "EC30": "+++ (“+++” means <3 uM)"}
{"smiles": "C[C@@H]1CN(c2nc(-c3ccccc3C(F)(F)F)ccc2C(=O)NS(=O)(=O)c2ccc[nH]c2=O)C(C)(C)C1", "note": "[Compound 1960, N-[(2-oxo-1H-pyridin-3-yl)sulfonyl]-6-[2-(trifluoromethyl)phenyl]-2-[(4S)-2,2,4-trimethylpyrrolidin-1-yl]pyridine-3-carboxamide]", "EC30": "+++ (“+++” means <3 uM)"}
{"smiles": "CC(C)COc1cc(F)cc(-c2ccc(C(=O)NS(=O)(=O)c3ccccn3)c(N3CC(C)CC3(C)C)n2)c1", "note": "(stereo not drawn) [Compound 1063, 6-(3-fluoro-5-isobutoxy-phenyl)-N-(2-pyridylsulfonyl)-2-(2,2,4-trimethylpyrrolidin-1-yl)pyridine-3-carboxamide]", "EC30": "+++ (“+++” means <3 uM)"}
{"smiles": "CCOc1ccc(-c2ccc(C(=O)NS(=O)(=O)c3cccc(N)n3)c(N3CCC(C)CC3)n2)cc1", "note": "[Compound 910, N-[(6-amino-2-pyridyl)sulfonyl]-6-(4-ethoxyphenyl)-2-(4-methyl-1-piperidyl)pyridine-3-carboxamide]", "EC30": "+++ (“+++” means <3 uM)"}
{"smiles": "CCCOc1ccc(-c2ccc(C(=O)NS(=O)(=O)c3ccc[nH]c3=O)c(Oc3c(C)cc(C)cc3C)n2)cc1", "note": "[Compound 1202, N-[(2-oxo-1H-pyridin-3-yl)sulfonyl]-6-(4-propoxyphenyl)-2-(2,4,6-trimethylphenoxy)pyridine-3-carboxamide]", "EC30": "+++ (“+++” means <3 uM)"}
{"smiles": "COc1cc(C)cc(S(=O)(=O)NC(=O)c2ccc(-c3cc(F)cc(OCC(C)C)c3)nc2N2C[C@@H](C)CC2(C)C)n1", "note": "[Compound 1482, 6-(3-fluoro-5-isobutoxy-phenyl)-N-[(6-methoxy-4-methyl-2-pyridyl)sulfonyl]-2-[(4S)-2,2,4-trimethylpyrrolidin-1-yl]pyridine-3-carboxamide]", "EC30": "+++ (“+++” means <3 uM)"}
{"smiles": "CCOc1cc(C)cc(-c2ccc(C(=O)NS(=O)(=O)c3cccc(N)n3)c(N3C[C@@H](C)CC3(C)C)n2)n1", "note": "[Compound 1512, N-[(6-amino-2-pyridyl)sulfonyl]-6-(6-ethoxy-4-methyl-2-pyridyl)-2-[(4S)-2,2,4-trimethylpyrrolidin-1-yl]pyridine-3-carboxamide]", "EC30": "+++ (“+++” means <3 uM)"}
{"smiles": "Cc1cc(C)c(Oc2nc(C3CCCCC3)ccc2C(=O)NS(=O)(=O)c2ccc[nH]c2=O)c(C)c1", "note": "[Compound 1357, 6-cyclohexyl-N-[(2-oxo-1H-pyridin-3-yl)sulfonyl]-2-(2,4,6-trimethylphenoxy)pyridine-3-carboxamide]", "EC30": "+++ (“+++” means <3 uM)"}
{"smiles": "CC(C)COc1cc(-c2ccc(C(=O)NS(=O)(=O)c3ccc[nH]c3=O)c(N3[C@H](C)CC[C@@H]3C)n2)ccc1Cl", "note": "[Compound 902, 6-(4-chloro-3-isobutoxy-phenyl)-2-[(2S,5R)-2,5-dimethylpyrrolidin-1-yl]-N-[(2-oxo-1H-pyridin-3-yl)sulfonyl]pyridine-3-carboxamide]", "EC30": "+++ (“+++” means <3 uM)"}
{"smiles": "Cc1ccc(C)c(-c2ccc(C(=O)NS(=O)(=O)c3cccnc3N)c(N3C[C@@H](C)CC3(C)C)n2)c1", "note": "[Compound 1951, N-[(2-amino-3-pyridyl)sulfonyl]-6-(2,5-dimethylphenyl)-2-[(4S)-2,2,4-trimethylpyrrolidin-1-yl]pyridine-3-carboxamide]", "EC30": "+++ (“+++” means <3 uM)"}
{"smiles": "Cc1cc(C)c(Oc2nc(C)ccc2C(=O)NS(=O)(=O)c2cccc(NCCCN)n2)c(C)c1", "note": "[Compound 982, N-[[6-(3-aminopropylamino)-2-pyridyl]sulfonyl]-6-methyl-2-(2,4,6-trimethylphenoxy)pyridine-3-carboxamide]", "EC30": "++ (“++” means between 3 uM and 10 uM)"}
{"smiles": "CC(C)COc1cc(-c2ccc(C(=O)NS(=O)(=O)c3ccc[nH]c3=O)c(N3CCC(C)CC3)n2)ccc1Cl", "note": "[Compound 941, 6-(4-chloro-3-isobutoxy-phenyl)-2-(4-methyl-1-piperidyl)-N-[(2-oxo-1H-pyridin-3-yl)sulfonyl]pyridine-3-carboxamide]", "EC30": "+++ (“+++” means <3 uM)"}
{"smiles": "COc1cccc(OC)c1-c1ccc(C(=O)NS(=O)(=O)c2cccnc2N)c(N2C[C@@H](C)CC2(C)C)n1", "note": "[Compound 1994, N-[(2-amino-3-pyridyl)sulfonyl]-6-(2,6-dimethoxyphenyl)-2-[(4S)-2,2,4-trimethylpyrrolidin-1-yl]pyridine-3-carboxamide]", "EC30": "+++ (“+++” means <3 uM)"}
{"smiles": "Cc1cc(-c2ccc(C(=O)NS(=O)(=O)c3cccc(N)n3)c(N3C[C@@H](C)CC3(C)C)n2)cnc1OCC(C)C", "note": "[Compound 1741, N-[(6-amino-2-pyridyl)sulfonyl]-6-(6-isobutoxy-5-methyl-3-pyridyl)-2-[(4S)-2,2,4-trimethylpyrrolidin-1-yl]pyridine-3-carboxamide]", "EC30": "+++ (“+++” means <3 uM)"}
{"smiles": "CC(C)COc1cc(F)cc(-c2ccc(C(=O)NS(=O)(=O)c3ccccc3O)c(N3C[C@@H](C)CC3(C)C)n2)c1", "note": "[Compound 1836, 6-(3-fluoro-5-isobutoxy-phenyl)-N-(2-hydroxyphenyl)sulfonyl-2-[(4S)-2,2,4-trimethylpyrrolidin-1-yl]pyridine-3-carboxamide]", "EC30": "+++ (“+++” means <3 uM)"}
{"smiles": "Cc1cc(C)c(Cn2c(C(=O)NS(=O)(=O)c3cccc(N)c3)cc3ccc(C#N)cc32)c(C)c1", "note": "[Compound 1082, N-(3-aminophenyl)sulfonyl-6-cyano-1-[(2,4,6-trimethylphenyl)methyl]indole-2-carboxamide]", "EC30": "+ (“+” means greater than 10 uM)"}
{"smiles": "C#CC1CCCN(c2nc(-c3ccc(OC(C)C)nc3)ccc2C(=O)NS(=O)(=O)c2cccc(N)n2)C1", "note": "(stereo not drawn) [Compound 954, N-[(6-amino-2-pyridyl)sulfonyl]-2-(3-ethynyl-1-piperidyl)-6-(6-isopropoxy-3-pyridyl)pyridine-3-carboxamide]", "EC30": "+++ (“+++” means <3 uM)"}
{"smiles": "CC(C)COc1cc(F)cc(-c2ccc(C(=O)NS(=O)(=O)c3cccc(N)n3)c(OC(C)C3CC3)n2)c1", "note": "(stereo not drawn) [Compound 1165, N-[(6-amino-2-pyridyl)sulfonyl]-2-(1-cyclopropylethoxy)-6-(3-fluoro-5-isobutoxy-phenyl)pyridine-3-carboxamide]", "EC30": "++ (“++” means between 3 uM and 10 uM)"}
{"smiles": "CC1CN(c2nc(C(C)(C)C)c(C3=CCOCC3)cc2C(=O)NS(=O)(=O)c2cccc(N)n2)C(C)(C)C1", "note": "(stereo not drawn) [Compound 1495, N-[(6-amino-2-pyridyl)sulfonyl]-6-tert-butyl-5-(3,6-dihydro-2H-pyran-4-yl)-2-(2,2,4-trimethylpyrrolidin-1-yl)pyridine-3-carboxamide]", "EC30": "+++ (“+++” means <3 uM)"}
{"smiles": "COc1c(F)cc(-c2ccc(C(=O)NS(=O)(=O)c3ccc[nH]c3=O)c(N3C[C@@H](C)CC3(C)C)n2)cc1F", "note": "[Compound 1801, 6-(3,5-difluoro-4-methoxy-phenyl)-N-[(2-oxo-1H-pyridin-3-yl)sulfonyl]-2-[(4S)-2,2,4-trimethylpyrrolidin-1-yl]pyridine-3-carboxamide]", "EC30": "+++ (“+++” means <3 uM)"}
